Test results reported in patent US20230210819A1, “USE OF BENZISOSELAZOLE DERIVATIVE FOR ANTI-CORONAVIRUS AND CONTROL OF INTERSTITIAL LUNG DISEASE (ILD) RELATED TO CORONAVIRUS” (SHANGHAI YUANXI MEDICINE CORP., priority 2020, published 2023).
Where two headings read alike, the source gives them in different places.

Columns and labels:
[1] = test system: bleomycin-induced mouse lung disease model; experiment: Lung and spleen coefficients, 24-h modeling; type: in vivo, C57 mice; details: 90 mg/kg, effect better than that of Dex
Protocol: Animals of 24-h modeling were randomly divided into 5 groups according to the table below, 3 animals per control group and 5 animals per test group.
Drug administration began 24 h or 7 d after modeling. […] The day of the first administration was counted as D1, the next day as D2, and so forth. The normal groups and Model groups were given 200 µL of normal saline daily by gavage administration.
Method: after being euthanized, the animals were dissected, and the heart, liver, spleen, lung and kidney were weighed.
In this experiment, 105 C57 mice were randomly selected and subjected to organ drip administration of a single dose of bleomycin at 2.5 mg/kg for 24 h or 7 d for induction. After 7 days of induction, 3 model mice were randomly selected and dissected to determine whether the modeling was successful. After modeling, the survival of the mice was recorded. The living states of the mice were observed and their body weight was measured at a fixed time.
A normal control group comprised 3 mice.

2019-nCoV 3CLpro protein = 2019-nCoV 3CLpro protein (Severe acute respiratory syndrome coronavirus 2, UniProt P0DTD1); experiment: 2019-nCoV 3CLpro protein activity, fluorescence method with fluorescent polypeptide substrate; type: biochemical

SMILES	IC50 (2019-nCoV 3CLpro protein)	also measured
O=c1c2ccccc2[se]n1CCCCn1[se]c2ccccc2c1=O [BS1801]		Effect on lung coefficient (in words) [1]: significantly reduce increases in the lung coefficient
O=c1c2ccccc2[se]n1CCCCn1[se]c2ccccc2c1=O [drawing 188]	111 nM	
O=c1c2ccccc2[se]n1-c1ccc(S(=O)(=O)n2[se]c3ccccc3c2=O)cc1	1240 nM	
O=c1c2ccccc2[se]n1CCn1[se]c2ccccc2c1=O		IC50 (2019-nCoV 3CLpro protein; read-out: IC50 (converted)): 1230 nM
O=c1c2ccccc2[se]n1CCCn1[se]c2ccccc2c1=O	115 nM	
Cc1[nH]c(/C=C2\C(=O)Nc3c(F)cccc32)c(C)c1C(=O)OCCn1[se]c2ccccc2c1=O	1640 nM	
O=c1c2cc(O)ccc2[se]n1CCCCn1[se]c2ccc(O)cc2c1=O	41.5 nM	
O=c1c2ccccc2[se]n1CCCCCn1[se]c2ccccc2c1=O	86.2 nM	
O=c1c2ccccc2[se]n1CCSSCCn1[se]c2ccccc2c1=O	1460 nM	
O=c1c2ccccc2[se]n1CCCCCCCCCCCCn1[se]c2ccccc2c1=O	35.6 nM	
